Source: ChEMBL document CHEMBL1201862, “PubChem BioAssay data set” (2004)
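Compound exposure: 48 hours, 5 concentrations, 96-well plates. GI50 marks 50% less growth.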 Calls of active or inactive are those of the source. Rule as the data show it: active = GI50 up to about 1.1 µM and inactive = higher.

Columns and labels:
Assay in all cases: NCI-60 cell line screen, 48 h
UO-31 = system: UO-31
OVCAR-5 = system: OVCAR-5
RXF 393 = system: RXF 393
SF-268 = system: SF-268
HOP-62 = system: HOP-62
NCI/ADR-RES = system: NCI/ADR-RES
786-0 = system: 786-0
HCT-15 = system: HCT-15
MDA-N = system: MDA-N
NCI-H226 = system: NCI-H226
A549 = system: A549
BT-549 = system: BT-549
MOLT-4 = system: MOLT-4
Malme-3M = system: Malme-3M
SF-539 = system: SF-539
UACC-257 = system: UACC-257
HCT-116 = system: HCT-116
HT-29 = system: HT-29
CAKI-1 = system: CAKI-1
TK-10 = system: TK-10

Structure (SMILES) | GI50 (UO-31) | GI50 (OVCAR-5) | GI50 (RXF 393) | GI50 (SF-268) | GI50 (HOP-62) | GI50 (NCI/ADR-RES) | GI50 (786-0) | GI50 (HCT-15) [µM] | GI50 (MDA-N) | GI50 (NCI-H226) | GI50 (A549) | GI50 (BT-549) | GI50 (MOLT-4) | GI50 (Malme-3M) | GI50 (SF-539) | GI50 (UACC-257) | GI50 (HCT-116) | GI50 (HT-29) | GI50 (CAKI-1) | GI50 (TK-10)
COc1ccc(P2(=S)SP(=S)(c3ccc(Cl)cc3)S2)cc1 (stereo not given) | > 100 µM (inactive) | > 100 µM (inactive) | > 100 µM (inactive) | > 100 µM (inactive) | > 100 µM (inactive) | > 100 µM (inactive) | > 100 µM (inactive) | > 100 | > 100 µM (inactive) | > 100 µM (inactive) | > 100 µM (inactive) | > 100 µM (inactive) | > 100 µM (inactive) | > 100 µM (inactive) | > 100 µM (inactive) | > 100 µM (inactive) | > 100 µM (inactive) | > 100 µM (inactive) | > 100 µM (inactive) | > 100 µM (inactive)
CCOC(=O)c1ccc(Nc2cnc3ccc(C(F)(F)F)cc3n2)cc1 | 20.1 µM (inactive) | 24.9 µM (inactive) | 8.18 µM (inactive) | 12.6 µM (inactive) | 20.6 µM (inactive) | 12.8 µM (inactive) | 13.9 µM (inactive) | 14.8 | 17.9 µM (inactive) | 16.4 µM (inactive) | 14.5 µM (inactive) | 15.8 µM (inactive) | 3.63 µM (inactive) | 21.4 µM (inactive) | 28.1 µM (inactive) | 18.4 µM (inactive) | 14.8 µM (inactive) | 11.9 µM (inactive) | 16.9 µM (inactive) | 12.3 µM (inactive)
O=C1N/C(=N\C2CCCCC2)C2(CCN(CCCC3(c4ccc(F)cc4)OCCO3)CC2)N1c1ccccc1 | 12.6 µM (inactive) | 16.7 µM (inactive) | 17.3 µM (inactive) | 21.5 µM (inactive) | 17.5 µM (inactive) | 24.3 µM (inactive) | 16.6 µM (inactive) | 18.1 | 15.4 µM (inactive) | 23.1 µM (inactive) | 21.4 µM (inactive) | 4.61 µM (inactive) | 15.1 µM (inactive) | 16.7 µM (inactive) | 17 µM (inactive) | 15.1 µM (inactive) | 12.2 µM (inactive) | 16.6 µM (inactive) | 22.8 µM (inactive) | 15.7 µM (inactive)
O=C1C(Cl)=C(Nc2ccc(S(=O)(=O)Nc3ccccn3)cc2)C(=O)c2ccccc21 | 9.84 µM (inactive) | 17.9 µM (inactive) | 7.35 µM (inactive) | 8.2 µM (inactive) | 13 µM (inactive) | 9.93 µM (inactive) | 8.22 µM (inactive) | 4.36 | 6.46 µM (inactive) | 20.7 µM (inactive) | 18.7 µM (inactive) | 14.4 µM (inactive) | 3.61 µM (inactive) | 2.96 µM (inactive) | 4.54 µM (inactive) | 5 µM (inactive) | 6.24 µM (inactive) | 7.5 µM (inactive) | 16.8 µM (inactive) | 7.98 µM (inactive)
CC1=C(C(=O)Nc2ccccc2)C(c2ccc(C)o2)C(C#N)=C(SCc2ccccc2)N1 (stereo not given) | 99.3 µM (inactive) | > 100 µM (inactive) | > 37.6 µM (inactive) | > 100 µM (inactive) | > 100 µM (inactive) | 18.7 µM (inactive) | > 100 µM (inactive) | 12.7 | 5.38 µM (inactive) | > 100 µM (inactive) | > 90.4 µM (inactive) | 43.4 µM (inactive) | 7.55 µM (inactive) | 5.77 µM (inactive) | > 100 µM (inactive) | > 100 µM (inactive) | 33.3 µM (inactive) | 34.9 µM (inactive) | > 100 µM (inactive) | > 65.3 µM (inactive)
COc1cc2c(c(OC)c1OC)-c1ccc(SC)c(=O)cc1[C@@H](O)CC2 | 0.0208 µM (active) | 0.0069 µM (active) | 0.000317 µM (active) | 0.00128 µM (active) | 0.000834 µM (active) | 0.00253 µM (active) | 0.000834 µM (active) | 0.000605 | 0.000121 µM (active) | 0.000703 µM (active) | 0.000895 µM (active) | 0.00168 µM (active) | 0.00108 µM (active) | 0.00021 µM (active) | 0.000356 µM (active) | 0.0252 µM (active) | 0.000381 µM (active) | 0.000294 µM (active) | 0.00166 µM (active) | > 1 µM (active)
Fc1ccc2nc3n(c2c1)C(c1c(F)cccc1F)SC3 (stereo not given) | 30.9 µM (inactive) | 8.69 µM (inactive) | 53.7 µM (inactive) | > 100 µM (inactive) | > 100 µM (inactive) | 31.6 µM (inactive) | > 100 µM (inactive) | 51.8 | 26.7 µM (inactive) | > 100 µM (inactive) | 58.3 µM (inactive) | 70 µM (inactive) | 21.3 µM (inactive) | > 100 µM (inactive) | > 100 µM (inactive) | 47.8 µM (inactive) | 24.5 µM (inactive) | 33.3 µM (inactive) | 35.2 µM (inactive) | 96.4 µM (inactive)
